Literature values in US20110082127A1, “NEW INJECTABLE FORMULATIONS CONTAINING PROGESTERONE” (priority 2004, published 2011).

Conditions: stated by the known art

Structure (SMILES): OC[C@H]1O[C@@H]2O[C@H]3[C@H](O)[C@@H](O)[C@@H](O[C@H]4[C@H](O)[C@@H](O)[C@@H](O[C@H]5[C@H](O)[C@@H](O)[C@@H](O[C@H]6[C@H](O)[C@@H](O)[C@@H](O[C@H]7[C@H](O)[C@@H](O)[C@@H](O[C@H]8[C@H](O)[C@@H](O)[C@@H](O[C@H]1[C@H](O)[C@H]2O)O[C@@H]8CO)O[C@@H]7CO)O[C@@H]6CO)O[C@@H]5CO)O[C@@H]4CO)O[C@@H]3CO [unsubstituted β-cyclodextrin, β-cyclodextrin]
- water solubility: 1.8 g/100 ml
